Read-outs that look alike come from different tables or passages of the source.
Tested on: 280 human cancer cell lines
Assay: OncoPanel cell proliferation assay (10-day)
Format: cell-based
Conditions: Homo sapiens; for EC50: read-out: Cell Count EC50; for GI50: read-out: Cell Count GI50; for IC50: read-out: Cell Count IC50
[1] = NCI-H292, NCI-H292, Lung - NSCLC
[2] = NCI-H441, NCIH441, Lung - NSCLC
[3] = NCI-H460, NCI-H460, Lung - NSCLC
[4] = NCI-H520, NCI-H520, Lung - NSCLC
[5] = NCI-H596, NCI-H596, Lung - NSCLC
[6] = NCI-H661, NCI-H661, Lung - NSCLC
[7] = NTERA-2-cl-D1, NTERA-2 cl.D1, Testis
[8] = OVCAR-3, OVCAR3, Female GU - Ovary
[9] = RPMI-7951, RPMI-7951, Skin (Melanoma)
[10] = SAOS-2, SaOS2, Soft Tissue - Osteosarcoma

With `CC(C)=CCC[C@H](CO)[C@@H]1CC[C@@H](C)c2c1cc(C)c(O)c2O` [Compound 1, 7,8,18-trihydroxyserrulat-14-ene] the EC50 [1] was 3.2 µM, the GI50 [1] was 3.18 µM and the IC50 [1] was 3.2 µM. The GI50 (NCI-H295R, Endocrine - Adrenal gland) was 13.5 µM, the EC50 [2] was 12.1 µM and the GI50 [2] was 11.7 µM. It also gave an IC50 [2] of 12.1 µM, an EC50 (NCI-H446, NCIH446, Lung - SCLC) of 10.3 µM and a GI50 (NCI-H446, NCIH446, Lung - SCLC) of 10 µM. The IC50 (NCI-H446, NCIH446, Lung - SCLC) was 10.3 µM, the EC50 [3] was 2.34 µM and the GI50 [3] was 2.33 µM. For the same molecule, the IC50 [3] was 2.34 µM, the EC50 (NCI-H508, NCI-H508, Colon) was 14.4 µM and the GI50 (NCI-H508, NCI-H508, Colon) was 14.3 µM. It also gave an IC50 (NCI-H508, NCI-H508, Colon) of 14.4 µM, an EC50 [4] of 2.43 µM and a GI50 [4] of 2.41 µM. For the same molecule, the IC50 [4] was 2.43 µM, the EC50 [5] was 8.78 µM and the GI50 [5] was 8.41 µM. For the same molecule, the IC50 [5] was 8.78 µM, the EC50 [6] was 2.28 µM and the GI50 [6] was 2.28 µM. For the same molecule, the IC50 [6] was 2.29 µM, the EC50 (NCI-H747, NCI-H747, Colon) was 3.09 µM and the GI50 (NCI-H747, NCI-H747, Colon) was 3.1 µM. For the same molecule, the IC50 (NCI-H747, NCI-H747, Colon) was 3.11 µM, the EC50 [7] was 2.25 µM and the GI50 [7] was 2.2 µM. It also gave an IC50 [7] of 2.25 µM, an EC50 (OCUG-1, OCUG-1, Liver) of 4.3 µM and a GI50 (OCUG-1, OCUG-1, Liver) of 4.29 µM. It also gave an IC50 (OCUG-1, OCUG-1, Liver) of 4.3 µM, an EC50 (OE19, OE19, Head and Neck) of 3.23 µM and a GI50 (OE19, OE19, Head and Neck) of 3.21 µM. The IC50 (OE19, OE19, Head and Neck) was 3.23 µM, the EC50 (OE21, OE21, Head and Neck) was 3.68 µM and the GI50 (OE21, OE21, Head and Neck) was 3.67 µM. The IC50 (OE21, OE21, Head and Neck) was 3.68 µM, the EC50 [8] was 1.53 µM and the GI50 [8] was 1.52 µM. The IC50 [8] was 1.57 µM, the EC50 (PA-1, Female GU - Ovary) was 4.21 µM and the GI50 (PA-1, Female GU - Ovary) was 4.21 µM. For the same molecule, the IC50 (PA-1, Female GU - Ovary) was 4.21 µM, the EC50 (PANC-1, PANC-1, Pancreas) was 2.87 µM and the GI50 (PANC-1, PANC-1, Pancreas) was 2.83 µM. For the same molecule, the IC50 (PANC-1, PANC-1, Pancreas) was 2.87 µM, the EC50 (PC-3, Prostate) was 3.88 µM and the GI50 (PC-3, Prostate) was 3.86 µM. It also gave an IC50 (PC-3, Prostate) of 3.88 µM, an EC50 (PFSK-1, PFSK-1, CNS - Glioma) of 4.32 µM and a GI50 (PFSK-1, PFSK-1, CNS - Glioma) of 4.31 µM. The IC50 (PFSK-1, PFSK-1, CNS - Glioma) was 4.33 µM, the EC50 (PSN1, PSN-1, Pancreas) was 2.32 µM and the GI50 (PSN1, PSN-1, Pancreas) was 2.32 µM. It also gave an IC50 (PSN1, PSN-1, Pancreas) of 2.32 µM, an EC50 (RD, Soft Tissue - Sarcoma) of 0.81 µM and a GI50 (RD, Soft Tissue - Sarcoma) of 0.81 µM. For the same molecule, the IC50 (RD, Soft Tissue - Sarcoma) was 0.81 µM, the EC50 (RKO, Colon) was 1.69 µM and the GI50 (RKO, Colon) was 1.69 µM. The IC50 (RKO, Colon) was 1.69 µM, the EC50 (RKOE6, RKOE6, Colon) was 1.72 µM and the GI50 (RKOE6, RKOE6, Colon) was 1.72 µM. The IC50 (RKOE6, RKOE6, Colon) was 1.72 µM, the EC50 (RPMI-6666, RPMI 6666, Lymphoma) was 3.53 µM and the GI50 (RPMI-6666, RPMI 6666, Lymphoma) was 3.44 µM. For the same molecule, the IC50 (RPMI-6666, RPMI 6666, Lymphoma) was 3.53 µM, the EC50 [9] was 0.7 µM and the GI50 [9] was 0.7 µM. It also gave an IC50 [9] of 0.7 µM, an EC50 (RPMI-8226, RPMI 8226, Myeloma) of 0.68 µM and a GI50 (RPMI-8226, RPMI 8226, Myeloma) of 0.67 µM. For the same molecule, the IC50 (RPMI-8226, RPMI 8226, Myeloma) was 0.68 µM, the EC50 (RS4-11, RS4, 11, Leukemia) was 1.77 µM and the GI50 (RS4-11, RS4, 11, Leukemia) was 1.71 µM. It also gave an IC50 (RS4-11, RS4, 11, Leukemia) of 1.77 µM, an EC50 (Raji, Lymphoma) of 4.6 µM and a GI50 (Raji, Lymphoma) of 4.59 µM. It also gave an IC50 (Raji, Lymphoma) of 4.6 µM, an EC50 (Ramos, Ramos (RA 1), Lymphoma) of 2.96 µM and a GI50 (Ramos, Ramos (RA 1), Lymphoma) of 2.96 µM. For the same molecule, the IC50 (Ramos, Ramos (RA 1), Lymphoma) was 2.96 µM, the EC50 [10] was 1.98 µM and the GI50 [10] was 2.04 µM. For the same molecule, the IC50 [10] was 2.1 µM, the EC50 (SCC-4, SCC-4, Head and Neck) was 4.66 µM and the GI50 (SCC-4, SCC-4, Head and Neck) was 4.63 µM. The IC50 (SCC-4, SCC-4, Head and Neck) was 4.72 µM, the EC50 (SCC-9, SCC-9, Head and Neck) was 3.44 µM and the GI50 (SCC-9, SCC-9, Head and Neck) was 3.44 µM. For the same molecule, the IC50 (SCC-9, SCC-9, Head and Neck) was 3.45 µM, the EC50 (SCC-25, SCC-25, Head and Neck) was 3.94 µM and the GI50 (SCC-25, SCC-25, Head and Neck) was 3.95 µM. It also gave an IC50 (SCC-25, SCC-25, Head and Neck) of 3.96 µM, an EC50 (SCaBER, Bladder) of 3.12 µM and a GI50 (SCaBER, Bladder) of 3.1 µM. For the same molecule, the IC50 (SCaBER, Bladder) was 3.12 µM and the EC50 (SH-4, Skin (Melanoma)) was 1.95 µM.

Reference: patent publication US11331299B2, “Medicinal use of serrulatane diterpenes” (The University of Sydney, priority 2016, dated 2022)
